Consider five molecules from patent publication US5641802A, “Tachyquinine antagonists, their preparation and use in pharmaceutical formulations” (A. Menarini Industrie Farmaceutiche Reiunite S.r.l., priority 1992, dated 1997).

Each structure is given as a SMILES string.

The test has as its target T1, NK1 receptor (Homo sapiens, UniProt P25103).
T1 construct: endogenous in cells; host or cells: IM9 cells (intact)
Briefly: [3H] SP binding assay in IM9 Cell Line (Substance P antagonism). The settings on record: intact IM9 cells, 60 min, room temperature, compound at 1 μM. As for the experimental part:
Assessment of biological activity (NK1 antagonism) of compounds of this invention was performed by means of the following binding and functional assays:
[3H] SP binding assay in IM9 Cell Line
Binding assay was performed with intact cells as described by Payan et al. (J. Immunology 133, 3260 (1984)). Cells were washed with buffer A, (pH 7.5), containing (in mM) Tris-HCl 50, and NaCl 150, plus 0.02% BSA, and then resuspended in assay buffer (buffer A supplemented with protease inhibitors) at a concentration of 1×10^7 cells/ml. Cells were incubated with [3H]SP in a final volume of 0.5 ml for 60 min. at room temperature. Nonspecific binding was determined in the presence of […] nonradioactive SP. The assay mixture was set up in microfuge tubes that had been presoaked in a 0.5% BSA solution for at least 3 hours. Bound and free [^3 H]SP were separated by pelleting the cells in a microfuge (6 min.; 12000 g); the supernatant was then removed by aspiration. For competition binding experiments, IM9 cells were incubated in triplicate with […] [^3 H]SP (the approximate Kd value, as determined in saturation binding experiments); competing ligands were typically added in six concentrations (1:10 dilutions in assay buffer) to give full competition curves.

T1 sequence (P25103 whole entry): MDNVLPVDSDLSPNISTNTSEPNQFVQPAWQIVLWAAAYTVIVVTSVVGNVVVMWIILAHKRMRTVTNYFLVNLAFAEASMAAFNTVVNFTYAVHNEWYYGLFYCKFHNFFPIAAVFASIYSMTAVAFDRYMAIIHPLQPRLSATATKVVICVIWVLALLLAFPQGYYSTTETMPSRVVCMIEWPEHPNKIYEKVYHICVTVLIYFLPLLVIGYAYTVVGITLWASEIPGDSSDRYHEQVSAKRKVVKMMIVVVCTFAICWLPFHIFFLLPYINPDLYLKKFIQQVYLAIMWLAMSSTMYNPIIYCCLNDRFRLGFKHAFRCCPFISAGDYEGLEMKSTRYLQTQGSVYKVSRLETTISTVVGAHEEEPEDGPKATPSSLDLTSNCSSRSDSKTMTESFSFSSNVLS

`CN(Cc1ccccc1)C(=O)[C@H](Cc1ccccc1)NC(=O)C1CCCCC1NC(=O)c1c[nH]c2ccccc12` (stereo partly drawn) [Example 1 fast, N-methyl-N-benzylamide of N^α -{[N(indol-3-yl-carbonyl)(R,R)-trans-2-amino]cyclohexanoyl}-L-phenylalanine and N-methyl-N-benzylamide of N^α -{[N(indol-3-yl-carbonyl)(S,S)-trans-2-amino]cyclohexanoyl}-L-phenylalamine, reference compound]: the inhibition – broadly, the relative decrease from the control value, in per cent – at 1 µM came out at 96%.

On to `CN(Cc1ccccc1)C(=O)[C@H](Cc1ccccc1)NC(=O)C1CCCCC1NC(=O)c1c[nH]c2ccccc12` (stereo partly drawn) [Example 2 fast, N-methyl-N-benzylamide of N^α -{[N(indol-3-yl-carbonyl)(R,S)-cis-2-amino]cyclohexanoyl}-L-phenylalanine and N-methyl-N-benzylamide of N^α -{[N(indol-3-yl-carbonyl)(S,R)-cis-2-amino]cyclohexanoyl}-L-phenylalanine], for which the “% of binding inhibition at 1 μM” value (1 µM) is listed as 100%.

In the case of `CN(Cc1ccccc1)C(=O)[C@H](Cc1ccc2ccccc2c1)NC(=O)C1CCCCC1NC(=O)c1c[nH]c2ccccc12` (stereo partly drawn) [Example 3 fast, N^α [N-(1H-indol-3-yl-carbonyl)-(R,S)cis-2-aminocyclohexyl-carbonyl]-L-3(2-naphthyl)alanyl-N-methyl-N-benzylamide and N^α [N-(1H-indol-3-yl-carbonyl)-(S,R)cis-2-aminocyclohexyl-carbonyl]-L-3(2-naphthyl)alanyl-N-methyl-N-benzylamide], the inhibition at 1 µM stood at 100%.

In the case of `CN(Cc1ccccc1)C(=O)[C@H](Cc1ccc2ccccc2c1)NC(=O)C1C2CCC(C2)C1NC(=O)c1c[nH]c2ccccc12` (stereo partly drawn) [Example 10 fast, N^α [N-(1H-indol-3-yl-carbonyl)-3S-endoaminobicyclo(2,2,1)heptyl-2R endocarbonyl]-L-3-(2-naphthyl)alanyl-N-methyl-N-benzylamide and N^α [N-(1H-indol-3-yl-carbonyl)-3R-endoaminobicyclo(2,2,1)heptyl-2S-endocarbonyl]-L-3-(2-naphthyl)alanyl-N-methyl-N-benzylamide], the inhibition at 1 µM amounted to 95%.

The molecule `CN(Cc1ccccc1)C(=O)[C@@H](Cc1ccc2ccccc2c1)NC(=O)C1CCCCC1NC(=O)c1ccccc1` (stereo partly drawn) [Example 17 fast, N^α [N-(benzoyl)-(R,S)cis-2-aminocyclohexyl-carbonyl]-D-3-(2-naphthyl)alanyl-N-methyl-N-benzylamide and N^α [N-(benzoyl)-(S,R)cis-2-aminocyclohexyl-carbonyl]-D-3-(2-naphthyl)alanyl-N-methyl-N-benzylamide] returned an inhibition at 1 µM of 98%.
